Like-named read-outs stand apart in the source and are kept apart here. Bridge positions count the residues as written; N and C are the ends. Peptide text beside a SMILES is read from it. * marks the point of attachment. CH3O(CH2CH2O)11CH2CH2CO = COCCOCCOCCOCCOCCOCCOCCOCCOCCOCCOCCOCCC(=O)* Bounds are passed on as bounds.

Series [1] deals with neutral endopeptidase (NEP) (Homo sapiens, UniProt P08473). The series can be described thus: in vitro. Particulars: human, pH 7. Summed up:
(§1)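 Recombinant human NEP (1 ug/mL final) incubated with 100 uM CNP variant in 0.1 M Tris, pH 7, at 37° C for various times, then quenched with EDTA (10 mM final) and heat. Samples reduced and analysed by HPLC and mass spectrometry. Half-life derived from loss of intact variant over time.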

A further series addresses Recombinant human NEP (Homo sapiens, UniProt P08473). The series can be described thus: in vitro. Particulars: for NEP Cleavage (t1/2, min): pH 7. Summed up:
as §1

A further series deals with T1, NPR-B (Mus musculus, UniProt Q6VVW5).
T1 construct: Murine NIH3T3 cells express endogenously the CNP signaling receptor, NPR-B; endogenous in cells; host or cells: NIH3T3 (murine fibroblasts)
T1 sequence (Q6VVW5 17-1047): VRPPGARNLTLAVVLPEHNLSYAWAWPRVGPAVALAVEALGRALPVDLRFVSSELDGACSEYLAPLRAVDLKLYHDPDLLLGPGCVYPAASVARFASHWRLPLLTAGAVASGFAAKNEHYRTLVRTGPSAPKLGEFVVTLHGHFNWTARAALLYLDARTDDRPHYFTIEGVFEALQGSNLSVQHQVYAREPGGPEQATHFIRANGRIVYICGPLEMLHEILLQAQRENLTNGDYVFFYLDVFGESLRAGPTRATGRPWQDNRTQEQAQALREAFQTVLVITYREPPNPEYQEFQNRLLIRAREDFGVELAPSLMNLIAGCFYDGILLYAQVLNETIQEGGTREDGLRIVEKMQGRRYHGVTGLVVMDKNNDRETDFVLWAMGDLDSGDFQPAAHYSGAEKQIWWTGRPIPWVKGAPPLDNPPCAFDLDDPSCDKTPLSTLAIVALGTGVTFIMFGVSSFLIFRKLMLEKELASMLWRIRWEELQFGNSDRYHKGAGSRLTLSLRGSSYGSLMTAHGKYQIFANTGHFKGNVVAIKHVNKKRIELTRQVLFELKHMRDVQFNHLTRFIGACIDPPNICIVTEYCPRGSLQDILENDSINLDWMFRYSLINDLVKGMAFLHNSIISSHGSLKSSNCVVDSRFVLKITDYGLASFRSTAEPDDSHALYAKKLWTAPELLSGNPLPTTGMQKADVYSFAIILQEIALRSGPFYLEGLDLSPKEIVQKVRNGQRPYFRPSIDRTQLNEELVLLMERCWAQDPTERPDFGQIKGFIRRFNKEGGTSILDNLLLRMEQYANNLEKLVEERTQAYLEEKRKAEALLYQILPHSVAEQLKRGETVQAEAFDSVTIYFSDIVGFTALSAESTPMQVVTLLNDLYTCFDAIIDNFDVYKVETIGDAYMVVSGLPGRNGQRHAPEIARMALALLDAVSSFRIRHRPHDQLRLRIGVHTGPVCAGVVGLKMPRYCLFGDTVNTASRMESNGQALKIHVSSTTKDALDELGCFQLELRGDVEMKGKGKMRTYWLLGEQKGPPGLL
The series can be described thus: Stimulation of cGMP production in NIH3T3 cells. In kind it is cell-based, Murine. Particulars: for cGMP response relative to 1 uM CNP22 (%) at 0.01 µM: read-out: cGMP Response rel. to 1 uM CNP22, 10 nM; for cGMP response relative to 1 uM CNP22 (%) at 1 µM: read-out: cGMP Response rel. to 1 uM CNP22, 1 uM.

[2] abbreviates: NIH3T3 cells, 10 nM natriuretic peptide, normalized to cell number and cGMP production with 1 uM wtCNP22.
Where [3] appears, read: NIH3T3 cells, 1 uM natriuretic peptide, normalized to cell number and cGMP production with 1 uM wtCNP22.

Recombinant human NEP, sequence (P08473 whole entry): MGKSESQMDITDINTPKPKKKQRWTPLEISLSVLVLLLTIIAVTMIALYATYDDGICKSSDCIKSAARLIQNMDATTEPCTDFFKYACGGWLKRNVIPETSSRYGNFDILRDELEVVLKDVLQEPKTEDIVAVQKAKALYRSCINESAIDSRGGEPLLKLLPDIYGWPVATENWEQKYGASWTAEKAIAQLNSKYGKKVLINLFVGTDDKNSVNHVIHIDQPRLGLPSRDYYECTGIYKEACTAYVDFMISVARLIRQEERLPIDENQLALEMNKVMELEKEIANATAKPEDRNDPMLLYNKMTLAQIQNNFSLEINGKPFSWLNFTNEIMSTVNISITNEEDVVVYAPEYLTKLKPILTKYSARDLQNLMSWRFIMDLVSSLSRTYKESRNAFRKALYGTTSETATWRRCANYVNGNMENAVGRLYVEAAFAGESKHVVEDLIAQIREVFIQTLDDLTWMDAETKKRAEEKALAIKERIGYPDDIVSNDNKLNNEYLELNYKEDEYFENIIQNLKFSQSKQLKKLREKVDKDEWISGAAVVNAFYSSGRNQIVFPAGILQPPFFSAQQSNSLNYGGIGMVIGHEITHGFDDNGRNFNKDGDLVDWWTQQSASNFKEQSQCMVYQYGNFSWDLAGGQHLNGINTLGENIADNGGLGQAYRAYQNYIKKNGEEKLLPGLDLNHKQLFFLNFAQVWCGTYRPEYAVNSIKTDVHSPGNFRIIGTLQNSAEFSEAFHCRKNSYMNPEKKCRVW
neutral endopeptidase (NEP), sequence (P08473 whole entry): as above

Turning to `CC[C@H](C)[C@@H]1NC(=O)[C@H](CCCNC(=N)N)NC(=O)[C@H](CC(=O)O)NC(=O)[C@H](CC(C)C)NC(=O)[C@H](CCCCN)NC(=O)[C@H](CC(C)C)NC(=O)CNC(=O)[C@H](Cc2ccccc2)NC(=O)[C@@H](NC(=O)CNC(=O)[C@H](CCCNC(=N)N)NC(=O)[C@H](CO)NC(=O)[C@H](CC(C)C)NC(=O)CNC(=O)[C@H](CCCNC(=N)N)NC(=O)[C@H](CCCNC(=N)N)NC(=O)[C@H](CC(N)=O)NC(=O)[C@H](C)NC(=O)CNC(=O)CCOCCOCCOCCOCCOCCOCCOCCOCCOCCOCCOCCOC)CSSC[C@@H](C(=O)O)NC(=O)CNC(=O)[C@H](CC(C)C)NC(=O)CNC(=O)[C@H](CO)NC(=O)[C@H](CCSC)NC(=O)[C@H](CO)NC(=O)CNC1=O` [PEO12-GANRR-CNP22, K4R (CNP27)] ({CH3O(CH2CH2O)11CH2CH2CO}-GANRRGLSRGCFGLKLDRIGSMSGLGC-OH; disulfide 11-27; C-terminus assumed), in series [1], the half-life at 100 uM is > 2.67 h. Further, the “resistance to NEP cleavage/degradation (in words)” value with Recombinant human NEP is given as “much more resistant to NEP degradation than CNP22”. For the same compound, the “NPR-B stimulation activity / cGMP production compared with wtCNP22 (in words)” value on NPR-B (NIH3T3 cells) is listed as “substantially the same NPR-B stimulation activity as CNP22”. The cGMP response relative to 1 uM CNP22 (%) at 0.01 µM on NPR-B (setting [2]) was 40 ± 2%. For the same compound, the cGMP response relative to 1 uM CNP22 (%) at 1 µM at NPR-B (setting [3]) worked out at 99 ± 13%.

For `CC[C@H](C)[C@@H]1NC(=O)[C@H](CCCNC(=N)N)NC(=O)[C@H](CC(=O)O)NC(=O)[C@H](CC(C)C)NC(=O)[C@H](CCCCN)NC(=O)[C@H](CC(C)C)NC(=O)CNC(=O)[C@H](Cc2ccccc2)NC(=O)[C@@H](NC(=O)CNC(=O)[C@H](CO)NC(=O)CNC(=O)[C@H](CCC(N)=O)NC(=O)[C@@H](NC(=O)[C@H](CCSC)NC(=O)[C@H](CCCCN)NC(=O)[C@@H]2CCCN2C(=O)[C@@H](N)CO)C(C)C)CSSC[C@@H](C(=O)N[C@@H](CCCCN)C(=O)N[C@H](C(=O)N[C@@H](CC(C)C)C(=O)N[C@@H](CCCNC(=N)N)C(=O)N[C@@H](CCCNC(=N)N)C(=O)N[C@@H](Cc2c[nH]cn2)C(=O)O)C(C)C)NC(=O)CNC(=O)[C@H](CC(C)C)NC(=O)CNC(=O)[C@H](CO)NC(=O)[C@H](CCSC)NC(=O)[C@H](CO)NC(=O)CNC1=O` [CD] (H-SPKMVQGSGCFGLKLDRIGSMSGLGCKVLRRH-OH; disulfide 10-26 (inferred); N-terminus and C-terminus assumed), the “resistance to NEP cleavage/degradation (in words)” value on Recombinant human NEP is recorded as “much more resistant to NEP cleavage than CNP22”. Further, the cGMP response relative to 1 uM CNP22 (%) at 0.01 µM at NPR-B (setting [2]) is 25%. In addition, the cGMP response relative to 1 uM CNP22 (%) at 1 µM on NPR-B (setting [3]) is 102%.

For the compound “PEG2K-CNP22: CNP22 conjugated at the N-terminus to polydispersed PEG2K”, the “NEP Cleavage (t1/2, min)” value with Recombinant human NEP is given as >>160 min. Moreover, in the series with NPR-B (setting [2]), the “cGMP Response rel. to 1 uM CNP22, 10 nM” value turned out to be 6 ± 2. In addition, the “cGMP Response rel. to 1 uM CNP22, 1 uM” value with NPR-B (setting [3]) is 32 ± 4.

Turning to `CC[C@H](C)[C@@H]1NC(=O)[C@H](CCCNC(=N)N)NC(=O)[C@H](CC(=O)O)NC(=O)[C@H](CC(C)C)NC(=O)[C@H](CCCCN)NC(=O)[C@H](CC(C)C)NC(=O)CNC(=O)[C@H](Cc2ccccc2)NC(=O)[C@@H](NC(=O)CNC(=O)[C@H](CCCCN)NC(=O)[C@H](CO)NC(=O)[C@H](CC(C)C)NC(=O)CNC(=O)[C@H](CCC(N)=O)NC(=O)[C@H](CO)NC(=O)[C@H](CC(C)C)NC(=O)[C@H](CCCNC(=N)N)NC(=O)[C@H](C)NC(=O)[C@@H](NC(=O)[C@H](C)NC(=O)[C@H](Cc2c[nH]c3ccccc23)NC(=O)[C@H](C)NC(=O)[C@H](CCCCN)NC(=O)[C@H](Cc2ccccc2)NC(=O)[C@H](C)NC(=O)[C@H](CCCNC(=N)N)NC(=O)[C@H](CCC(=O)O)NC(=O)CN)C(C)C)CSSC[C@@H](C(=O)O)NC(=O)CNC(=O)[C@H](CC(C)C)NC(=O)CNC(=O)[C@H](CO)NC(=O)[C@H](CCSC)NC(=O)[C@H](CO)NC(=O)CNC1=O` [CE] (H-GERAFKAWAVARLSQGLSKGCFGLKLDRIGSMSGLGC-OH; disulfide 21-37 (inferred); N-terminus and C-terminus assumed), the “resistance to NEP cleavage/degradation (in words)” value at Recombinant human NEP is given as “much more resistant to NEP cleavage than CNP22”. Besides, at NPR-B (setting [2]), the cGMP response relative to 1 uM CNP22 (%) at 0.01 µM is 15%. Further, at NPR-B (setting [3]), the cGMP response relative to 1 uM CNP22 (%) at 1 µM was 87%.

Consider `CC[C@H](C)[C@@H]1NC(=O)[C@H](CCCNC(=N)N)NC(=O)[C@H](CC(=O)O)NC(=O)[C@H](CC(C)C)NC(=O)[C@H](CCCCN)NC(=O)[C@H](CC(C)C)NC(=O)CNC(=O)[C@H](Cc2ccccc2)NC(=O)[C@@H](NC(=O)CNC(=O)[C@H](CCCCN)NC(=O)[C@H](CO)NC(=O)[C@H](CC(C)C)NC(=O)CNC(=O)[C@H](C)NC(=O)[C@H](CC(N)=O)NC(=O)[C@@H]2CCCN2C(=O)[C@H](Cc2c[nH]cn2)NC(=O)[C@H](CCC(=O)O)NC(=O)[C@H](CCC(N)=O)NC(=O)[C@H](CC(C)C)NC(=O)[C@H](CC(C)C)NC(=O)[C@H](CCCNC(=N)N)NC(=O)[C@H](C)NC(=O)[C@H](Cc2c[nH]c3ccccc23)NC(=O)[C@H](C)NC(=O)[C@H](C)N)CSSC[C@@H](C(=O)O)NC(=O)CNC(=O)[C@H](CC(C)C)NC(=O)CNC(=O)[C@H](CO)NC(=O)[C@H](CCSC)NC(=O)[C@H](CO)NC(=O)CNC1=O` [CA] (H-AAWARLLQEHPNAGLSKGCFGLKLDRIGSMSGLGC-OH; disulfide 19-35 (inferred); N-terminus and C-terminus assumed), for which, at Recombinant human NEP, the “resistance to NEP cleavage/degradation (in words)” value was “much more resistant to NEP cleavage than CNP22”. Besides, at NPR-B (setting [2]), the cGMP response relative to 1 uM CNP22 (%) at 0.01 µM was 24%. The cGMP response relative to 1 uM CNP22 (%) at 1 µM on NPR-B (setting [3]) came to 76%.

Consider “PEG1K-CNP22: CNP22 conjugated at the N-terminus to polydispersed PEG1K”, for which the “NEP Cleavage (t1/2, min)” value with Recombinant human NEP is >>160 min. Further, the “cGMP Response rel. to 1 uM CNP22, 10 nM” value with NPR-B (setting [2]) was 15 ± 3. In addition, the “cGMP Response rel. to 1 uM CNP22, 1 uM” value with NPR-B (setting [3]) worked out at 68 ± 17.

Regarding `CC[C@H](C)[C@@H]1NC(=O)[C@H](CCCNC(=N)N)NC(=O)[C@H](CC(=O)O)NC(=O)[C@H](CC(C)C)NC(=O)[C@H](CCCCN)NC(=O)[C@H](CC(C)C)NC(=O)CNC(=O)[C@H](Cc2ccccc2)NC(=O)[C@@H](NC(=O)CNC(=O)[C@H](CCCNC(=N)N)NC(=O)[C@H](CO)NC(=O)[C@H](CC(C)C)NC(=O)CNC(=O)[C@H](CCCNC(=N)N)NC(=O)[C@@H]2CCCN2C(=O)[C@H](CC(N)=O)NC(=O)[C@H](C)NC(=O)CNC(=O)CCOCCOCCOCCOCCOCCOCCOCCOCCOCCOCCOCCOC)CSSC[C@@H](C(=O)O)NC(=O)CNC(=O)[C@H](CC(C)C)NC(=O)CNC(=O)[C@H](CO)NC(=O)[C@H](CCSC)NC(=O)[C@H](CO)NC(=O)CNC1=O` [PEO12-GANPR-CNP22, K4R] ({CH3O(CH2CH2O)11CH2CH2CO}-GANPRGLSRGCFGLKLDRIGSMSGLGC-OH; disulfide 11-27; C-terminus assumed), in series [1] (recombinant human neutral endopeptidase (NEP)), the half-life at 100 uM is 1.33 h. Also, the “resistance to NEP cleavage/degradation (in words)” value with Recombinant human NEP is “same half-life as wtCNP22”.

As to `CC[C@H](C)[C@@H]1NC(=O)[C@H](CCCNC(=N)N)NC(=O)[C@H](CC(=O)O)NC(=O)[C@H](CC(C)C)NC(=O)[C@H](CCCCN)NC(=O)[C@H](CC(C)C)NC(=O)CNC(=O)[C@H](Cc2ccccc2)N(C)C(=O)[C@@H](NC(=O)CNC(=O)[C@H](CCCCN)NC(=O)[C@H](CO)NC(=O)[C@H](CC(C)C)NC(=O)CN)CSSC[C@@H](C(=O)O)NC(=O)CNC(=O)[C@H](CC(C)C)NC(=O)CNC(=O)[C@H](CO)NC(=O)[C@H](CCSC)NC(=O)[C@H](CO)NC(=O)CNC1=O` [B], the “resistance to cleavage at the Cys6-Phe7 bond relative to wtCNP22” value on Recombinant human NEP (data not shown) was “resistance or improved resistance”. For the same compound, the “resistance to cleavage of the Gly8-Leu9 bond” value on Recombinant human NEP (in the presence of 1 ug/mL NEP, data not shown) was “exhibited resistance”. Moreover, at NPR-B (NIH3T3, […]), the cGMP response relative to 1 uM CNP22 (%) at 0.01 µM came to 2% and the cGMP response relative to 1 uM CNP22 (%) at 1 µM turned out to be 38%.

Values taken from patent US8377884B2, “Variants of C-type natriuretic peptides” (Biomarin Pharmaceutical Inc., priority 2007, dated 2013).
